Measured values taken from patent US20250170090A1, “METHOD FOR PREVENTING OR TREATING DISEASE OR DISORDER ASSOCIATED WITH ANTINEOPLASTIC AGENT” (ONQUALITY PHARMACEUTICALS CHINA LTD., priority 2022, published 2025).

What was measured:
[1] = tested on: hand-foot syndrome caused by anti-tumor agents; assay: Treatment of established hand-foot syndrome caused by anti-tumor agents in rats (Table 4); type: in vivo; details: Days 7
Procedure: After the rats (about 200 g) were fed and adapted for one week, the rats were divided into groups of 10 rats for gavage administration experiment. The anti-tumor agent was dissolved in a mixed solution of Cremophor EL:ethanol=1:1, and diluted with PBS to the required concentration (diluted about 3 times with PBS solution) before gavage. […] Specific experimental procedures followed those outlined in the prevention experiment. […] Table 4 lists the animal experiments using various anti-tumor agents and NO-NSAID ointment, as well as the corresponding experimental results (where the value in the control rate column=the incidence rate of hand-foot syndrome in the blank group−the incidence rate of hand-foot syndrome in the treatment group).

[2] = tested on: chemotherapy-induced hand-foot syndrome; assay: Prevention of chemotherapy-induced hand-foot syndrome in rat models (Table 5); type: in vivo, SD rats; details: Capecitabine 4000 mg/kg once a day, Days 40
Procedure: Rat animal model was constructed. After several days, the rats develop hand-foot syndrome in their paws. After one week of acclimatization (about 200 g), the SD rats are divided into groups of 10 rats each, followed by gavage administration experiment. The chemotherapy drugs were dissolved, and each rat was given a gavage dose of 1 mL/100 g. After gavage, the rats were fixed with a fixed cylinder. NO-NSAID ointment was applied to the paws of the rats in the medication group, and blank ointment was applied to the paws of the rats in the blank group (as blank control). […] Table 5 lists the animal experimental combinations of chemotherapy drugs and NO-NSAID ointment, as well as the corresponding experimental results (where the value in the control rate column=the incidence rate of hand-foot syndrome in the blank group−the incidence rate of hand-foot syndrome in the treatment group).

[3] = tested on: human immortalized keratinocytes (HaCaT); assay: CCK-8 cell viability: alleviation of proliferative toxicity of anti-tumor agents on HaCaT (Table 8-1); type: cell-based; details: NO-NSAID 100 μM, percentage increase in viable cells vs anti-tumor agent alone
Procedure: (§1) Experiments were conducted using various epithelial cells: Examples 47-51 used human immortalized keratinocytes (HaCaT) with corresponding results in Table 8-1; Examples 52-56 used human oral keratinocytes (HOK) with results in Table 8-2; Examples 57-61 used gastric epithelial cells (GES-1) with results in Table 8-3; Examples 62-66 used human intestinal epithelial cells (FHs 74 Int) with results in Table 8-4.
(§2) The cultured cells were digested the suspended, counted, and seed into a 96-well plate with 5,000-10,000 cells per well. The wells are divided into the following groups: blank control group, anti-tumor agent group, anti-tumor agent+NO-NSAID group, anti-tumor agent solvent group, NO-NSAID solvent control group. Wherein each well of each group contained a basic medium, and the final liquid volume contained in each well was about 100 μL. The grouping situation was as follows: • 1) Blank control group: no solution was added except normally replacing the medium; • 2) Anti-tumor agent group: added the anti-tumor agent solution (the final concentration was shown in Table 8-1 to Table 8-4, the solvent of the anti-tumor agent solution was DMSO); • 3) Anti-tumor agent+NO-NSAID group: added the anti-tumor agent solution and the NO-NSAID solution (the final concentrations of anti-tumor agent and NO-NSAID were shown in Table 8-1 to Table 8-4, and according to the solubility of NO-NSAID, the solvent of NO-NSAID solution was selected as ethanol or sterile water, and minor volume differences in each group were adjusted by added the corresponding solvent); • 4) Anti-tumor agent solvent group: an equal volume of DMSO as contained in the corresponding anti-tumor agent solution in Group 2) was added; • 5) NO-NSAID control group: the same volume and type of solvent (for example, ethanol or sterile water) corresponding to the NO-NSAID contained in group 3) was added.
(§3) The anti-tumor agent solvent group was not involved in data processing and was only used as a reference for evaluating experimental system error. The NO-NSAID solvent control group was used for data correction to eliminate the influence of the solvent on the results.
(§4) After culturing for 24-48 hours, the Cell Counting Kit-8 (CCK-8) detection kit (C0037, Shanghai Beyotime Biotechnology Co., Ltd., Beyotime Biotechnology) was used to determine the cell viability. This allows for the calculation of the proliferative toxicity of anti-tumor agent on cell and the mitigating effect of NO-NSAID on proliferative toxicity. The results were statistically analyzed and plotted using GraphPad Prism 6.0 software and t test.

[4] = tested on: human oral keratinocytes (HOK); assay: CCK-8 cell viability: alleviation of proliferative toxicity of anti-tumor agents on HOK (Table 8-2); type: cell-based; details: NO-NSAID 100 μM
Procedure: as §1, §2, §3, §4

[5] = tested on: gastric epithelial cells (GES-1); assay: CCK-8 cell viability: alleviation of proliferative toxicity of anti-tumor agents on GES-1 (Table 8-3); type: cell-based, human; details: NO-NSAID 100 μM
Procedure: as §1, §2, §3, §4

[6] = tested on: human intestinal epithelial cells (FHs 74 Int); assay: CCK-8 cell viability: alleviation of proliferative toxicity of anti-tumor agents on FHs 74 Int (Table 8-4); type: cell-based; details: NO-NSAID 100 μM
Procedure: as §1, §2, §3, §4

## CC(=O)Oc1ccccc1C(=O)OCOC(=O)CCCCCO[N+](=O)[O-] [Compound A3]
[1]; Regorafenib 90 mg/kg once every two days, ointment 1% wt
  Response rate: 33.33%
[1]; Sorafenib 80 mg/kg once every two days, ointment 3% wt
  Response rate: 42.86%
[2]; ointment 1% wt
  Control rate: 28.57%
[2]; ointment 3% wt
  Control rate: 37.50%
[3]; Afatinib (10 μM)
  Response rate % (average): 24%
[3]; Cabozantinib (5 μM)
  Response rate % (average): 24%
[3]; Dabrafenib (10 μM)
  Response rate % (average): 3%
[3]; Everolimus (5 μM)
  Response rate % (average): −10%
[3]; Infigratinib (15 μM)
  Response rate % (average): 1%
[3]; Lapatinib (5 μM)
  Response rate % (average): 22%
[3]; Lenvatinib (10 μM)
  Response rate % (average): 0%
[3]; Olmutinib (10 μM)
  Response rate % (average): 37%
[3]; Regorafenib (5 μM)
  Response rate % (average): 33%
[3]; Selumetinib (5 μM)
  Response rate % (average): 20%
[3]; Sorafenib (5 μM)
  Response rate % (average): 33%
[3]; Sunitinib (5 μM)
  Response rate % (average): 19%
[4]; Afatinib (10 μM)
  Response rate % (average): 27%
[4]; Cabozantinib (5 μM)
  Response rate % (average): 8%
[4]; Dabrafenib (10 μM)
  Response rate % (average): 4%
[4]; Everolimus (5 μM)
  Response rate % (average): −8%
[4]; Infigratinib (15 μM)
  Response rate % (average): 7%
[4]; Lapatinib (5 μM)
  Response rate % (average): −4%
[4]; Lenvatinib (10 μM)
  Response rate % (average): 18%
[4]; Olmutinib (10 μM)
  Response rate % (average): 35%
[4]; Regorafenib (5 μM)
  Response rate % (average): 12%
[4]; Selumetinib (5 μM)
  Response rate % (average): 16%
[4]; Sorafenib (5 μM)
  Response rate % (average): 30%
[4]; Sunitinib (5 μM)
  Response rate % (average): 14%
[5]; Afatinib (10 μM)
  Response rate % (average): 7%
[5]; Cabozantinib (5 μM)
  Response rate % (average): 14%
[5]; Dabrafenib (10 μM)
  Response rate % (average): 7%
[5]; Everolimus (5 μM)
  Response rate % (average): 19%
[5]; Infigratinib (15 μM)
  Response rate % (average): 28%
[5]; Lapatinib (5 μM)
  Response rate % (average): 20%
[5]; Lenvatinib (10 μM)
  Response rate % (average): 22%
[5]; Olmutinib (10 μM)
  Response rate % (average): 33%
[5]; Regorafenib (5 μM)
  Response rate % (average): 26%
[5]; Selumetinib (5 μM)
  Response rate % (average): 19%
[5]; Sorafenib (5 μM)
  Response rate % (average): 24%
[5]; Sunitinib (5 μM)
  Response rate % (average): 4%
[6]; Afatinib (10 μM)
  Response rate % (average): 26%
[6]; Cabozantinib (5 μM)
  Response rate % (average): 13%
[6]; Dabrafenib (10 μM)
  Response rate % (average): −8%
[6]; Everolimus (5 μM)
  Response rate % (average): 14%
[6]; Infigratinib (15 μM)
  Response rate % (average): 6%
[6]; Lapatinib (5 μM)
  Response rate % (average): 23%
[6]; Lenvatinib (10 μM)
  Response rate % (average): 25%
[6]; Olmutinib (10 μM)
  Response rate % (average): 29%
[6]; Regorafenib (5 μM)
  Response rate % (average): 29%
[6]; Selumetinib (5 μM)
  Response rate % (average): 29%
[6]; Sorafenib (5 μM)
  Response rate % (average): 26%
[6]; Sunitinib (5 μM)
  Response rate % (average): 25%
